According to patent US20080318977A1, “Condensed Pyridines as Kinase Inhibitors” (Palau Pharma, S.A., priority 2004, published 2008):

These compounds were tested against T1, p38α (Homo sapiens, UniProt Q16539) (assay: Inhibition of p38α enzyme activity (IMAP fluorescence polarisation kinase assay)). Settings: at 1 μM compound; ATP 20 μM; 2 h at RT.
T1 construct: GST-tagged fusion protein corresponding to full-length human p38α; purchased Upstate 14-251; host or cells: E. coli
Assay type: biochemical
Procedure: Inhibition of p38α Enzyme Activity:
Compound stocks in 100% DMSO are first diluted in DMSO to a concentration of 1×10^−3 up to 3.2×10^−8 M and then further diluted in kinase assay buffer (10 mM Tris-HCl, pH 7.2, 10 mM MgCl2, 0.01% tween 20, 0.05% NaN3, 1 mM dithiothreitol) to a concentration range of 4×10^−5 up to 1.3×10^−9 M. Of each compound solution 5 μL is transferred into a 384-wells black Optiplate (Packard, 6007279), followed by the addition of 5 μL of ATP (Boehringer, 519987), 5 μL of Fluorescein-labeled EGFR (Epidermal Growth Factor Receptor) peptide substrate and 5 μL of active p38 cc kinase (GST-tagged fusion protein corresponding to full-length human p38α; expressed in E. coli by Upstate, 14-251), all diluted in kinase assay buffer (see final concentrations in Table 1). The mixture is incubated for 2 h at room temperature (RT). The reaction is stopped by the addition of 60 μL of IMAP binding reagent, which has been diluted 400-fold in IMAP binding buffer (stock concentration 5 times diluted in Milli Q). After incubation for 30 min at RT, FP is measured on an Analyst™ multimode fluorescence plate reader (Molecular Devices) at excitation wavelength of 485 nm and emission wavelength of 530 nm (1 sec/well).
Data handling is performed as follows: percentage effects are calculated based on no-p38-enzyme-addition as the maximum inhibitory effect and with p38 enzyme addition as the minimum inhibitory effect. In each experiment, individual compound concentrations are tested in duplicate and percentage effect is calculated for each concentration.

T1 sequence (Q16539 whole entry, the tested form may be a part): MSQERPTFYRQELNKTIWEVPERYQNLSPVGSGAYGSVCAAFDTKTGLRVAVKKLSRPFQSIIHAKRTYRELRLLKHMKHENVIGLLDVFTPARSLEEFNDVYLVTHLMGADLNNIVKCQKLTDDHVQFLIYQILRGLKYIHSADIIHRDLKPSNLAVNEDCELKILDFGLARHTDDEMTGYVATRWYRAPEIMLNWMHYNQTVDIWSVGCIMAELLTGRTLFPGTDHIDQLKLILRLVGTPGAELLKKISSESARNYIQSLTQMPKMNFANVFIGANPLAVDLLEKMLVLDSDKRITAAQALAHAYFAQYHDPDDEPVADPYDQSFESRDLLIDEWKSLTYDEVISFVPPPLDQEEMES

inhibition at 1 µM	SMILES
> 50%	COC(=O)c1cc2c(-c3ccc(F)cc3)c(-c3ccncc3)c(-c3ccc(F)cc3)nc2o1 [Example 2, Methyl 4,6-bis(4-fluorophenyl)-5-(4-pyridyl)furo[2,3-b]pyridine-2-carboxylate]
> 50%	COC(=O)c1cc2nc(-c3ccc(F)cc3)c(-c3ccncc3)c(-c3ccc(F)cc3)c2n1C [Example 3, Methyl 5,7-bis(4-fluorophenyl)-1-methyl-6-(4-pyridyl)pyrrolo[3,2-b]pyridine-2-carboxylate]
> 50%	CCOC(=O)c1nc2nc(-c3ccc(F)cc3)c(-c3ccncc3)c(-c3ccc(F)cc3)c2n1C [Example 5, Ethyl 5,7-bis(4-fluorophenyl)-1-methyl-6-(4-pyridyl)imidazo[4,5-b]pyridine-2-carboxylate]
> 50%	Cn1c(CO)cc2nc(-c3ccc(F)cc3)c(-c3ccncc3)c(-c3ccc(F)cc3)c21 [Example 6, [5,7-Bis(4-fluorophenyl)-1-methyl-6-(4-pyridyl)pyrrolo[3,2-b]pyridin-2-yl]methanol]
> 50%	Cn1c(CO)nc2nc(-c3ccc(F)cc3)c(-c3ccncc3)c(-c3ccc(F)cc3)c21 [Example 7, [5,7-Bis(4-fluorophenyl)-1-methyl-6-(4-pyridyl)imidazo[4,5-b]pyridin-2-yl]methanol]
> 50%	Cn1cnc2nc(-c3ccc(F)cc3)c(-c3ccncc3)c(-c3ccc(F)cc3)c21 [Example 10, 5,7-Bis(4-fluorophenyl)-1-methyl-6-(4-pyridyl)imidazo[4,5-b]pyridine]
> 50%	Cn1c(C(N)=O)cc2nc(-c3ccc(F)cc3)c(-c3ccncc3)c(-c3ccc(F)cc3)c21 [Example 12, 5,7-Bis(4-fluorophenyl)-1-methyl-6-(4-pyridyl)pyrrolo[3,2-b]pyridine-2-carboxamide]
> 50%	Cn1c(C(=O)NCCO)cc2nc(-c3ccc(F)cc3)c(-c3ccncc3)c(-c3ccc(F)cc3)c21 [Example 13, 5,7-Bis(4-fluorophenyl)-N-(2-hydroxyethyl)-1-methyl-6-(4-pyridyl)pyrrolo[3,2-b]pyridine-2-carboxamide]
> 50%	Cn1c(C(=O)N2CCOCC2)cc2nc(-c3ccc(F)cc3)c(-c3ccncc3)c(-c3ccc(F)cc3)c21 [Example 14, [5,7-Bis(4-fluorophenyl)-1-methyl-6-(4-pyridyl)pyrrolo[3,2-b]pyridin-2-yl]morpholin-4-ylmethanone]
> 50%	CC(C)(O)c1cc2c(-c3ccc(F)cc3)c(-c3ccncc3)c(-c3ccc(F)cc3)nc2o1 [Example 16, 2-[4,6-Bis-(4-fluorophenyl)-5-(4-pyridyl)furo[2,3-b]pyridin-2-yl]propan-2-ol]
> 50%	Cn1c(C(C)(C)O)nc2nc(-c3ccc(F)cc3)c(-c3ccncc3)c(-c3ccc(F)cc3)c21 [Example 18, 2-[5,7-Bis(4-fluorophenyl)-1-methyl-6-(4-pyridyl)imidazo[4,5-b]pyridin-2-yl]propan-2-ol]
> 50%	CC(=O)c1nc2nc(-c3ccc(F)cc3)c(-c3ccncc3)c(-c3ccc(F)cc3)c2n1C [Example 19, 1-[5,7-Bis(4-fluorophenyl)-1-methyl-6-(4-pyridyl)imidazo[4,5-b]pyridin-2-yl]ethanone]
> 50%	Cn1c(C(C)(C)O)cc2nc(-c3ccc(F)cc3)c(-c3ccncc3)c(-c3ccc(F)cc3)c21 [Example 20, 2-[5,7-Bis(4-fluorophenyl)-1-methyl-6-(4-pyridyl)pyrrolo[3,2-b]pyridin-2-yl]propan-2-ol]
> 50%	CC(=O)c1cc2nc(-c3ccc(F)cc3)c(-c3ccncc3)c(-c3ccc(F)cc3)c2n1C [Example 21, 1-[5,7-Bis(4-fluorophenyl)-1-methyl-6-(4-pyridyl)pyrrolo[3,2-b]pyridin-2-yl]ethanone]
> 50%	OCc1cc2c(-c3ccc(F)cc3)c(-c3ccncc3)c(-c3ccc(F)cc3)nc2o1 [Example 22, [4,6-Bis(4-fluorophenyl)-5-(4-pyridyl)furo[2,3-b]pyridin-2-yl]methanol]
> 50%	O=C(NCCN1CCOCC1)c1cc2c(-c3ccc(F)cc3)c(-c3ccncc3)c(-c3ccc(F)cc3)nc2o1 [Example 25, 4,6-Bis-(4-fluoro-phenyl)-5-pyridin-4-yl-furo[2,3-b]pyridine-2-carboxylic acid (2-morpholin-4-yl-ethyl)-amide]

inhibition at 1 µM	SMILES
> 50%	O=C(NCCN1CCCCC1)c1cc2c(-c3ccc(F)cc3)c(-c3ccncc3)c(-c3ccc(F)cc3)nc2o1 [Example 26, 4,6-Bis-(4-fluoro-phenyl)-5-pyridin-4-yl-furo[2,3-b]pyridine-2-carboxylic acid (2-piperidin-1-yl-ethyl)-amide]
> 50%	O=C(NCCO)c1cc2c(-c3ccc(F)cc3)c(-c3ccncc3)c(-c3ccc(F)cc3)nc2o1 [Example 27, 4,6-Bis-(4-fluoro-phenyl)-5-pyridin-4-yl-furo[2,3-b]pyridine-2-carboxylic acid (2-hydroxy-ethyl)-amide]
> 50%	COCCNC(=O)c1cc2nc(-c3ccc(F)cc3)c(-c3ccncc3)c(-c3ccc(F)cc3)c2n1C [Example 28, 5,7-Bis-(4-fluoro-phenyl)-1-methyl-6-pyridin-4-yl-1H-pyrrolo[3,2-b]pyridine-2-carboxylic acid (2-methoxy-ethyl)-amide]
> 50%	CCCNC(=O)c1cc2nc(-c3ccc(F)cc3)c(-c3ccncc3)c(-c3ccc(F)cc3)c2n1C [Example 29, 5,7-Bis-(4-fluoro-phenyl)-1-methyl-6-pyridin-4-yl-1H-pyrrolo[3,2-b]pyridine-2-carboxylic acid propylamide]
> 50%	Cn1c(C(=O)NCCN2CCOCC2)cc2nc(-c3ccc(F)cc3)c(-c3ccncc3)c(-c3ccc(F)cc3)c21 [Example 30, 5,7-Bis-(4-fluoro-phenyl)-1-methyl-6-pyridin-4-yl-1H-pyrrolo[3,2-b]pyridine-2-carboxylic acid (2-morpholin-4-yl-ethyl)-amide]
> 50%	Cn1c(C(=O)NCCN2CCCCC2)cc2nc(-c3ccc(F)cc3)c(-c3ccncc3)c(-c3ccc(F)cc3)c21 [Example 31, 5,7-Bis-(4-fluoro-phenyl)-1-methyl-6-pyridin-4-yl-1H-pyrrolo[3,2-b]pyridine-2-carboxylic acid (2-piperidin-1-yl-ethyl)-amide]
> 50%	COCCNCc1cc2nc(-c3ccc(F)cc3)c(-c3ccncc3)c(-c3ccc(F)cc3)c2n1C [Example 32, [5,7-Bis-(4-fluoro-phenyl)-1-methyl-6-pyridin-4-yl-1H-pyrrolo[3,2-b]pyridin-2-ylmethyl]-(2-methoxy-ethyl)-amine]
> 50%	Cn1c(CNCC2CC2)cc2nc(-c3ccc(F)cc3)c(-c3ccncc3)c(-c3ccc(F)cc3)c21 [Example 33, [5,7-Bis-(4-fluoro-phenyl)-1-methyl-6-pyridin-4-yl-1H-pyrrolo[3,2-b]pyridin-2-ylmethyl]-cyclopropylmethyl-amine]
> 50%	COC(=O)CNCc1cc2nc(-c3ccc(F)cc3)c(-c3ccncc3)c(-c3ccc(F)cc3)c2n1C [Example 34, {[5,7-Bis-(4-fluoro-phenyl)-1-methyl-6-pyridin-4-yl-1H-pyrrolo[3,2-b]pyridin-2-ylmethyl]-amino}-acetic acid methyl ester]
> 50%	CCN(CC(=O)OC)Cc1cc2nc(-c3ccc(F)cc3)c(-c3ccncc3)c(-c3ccc(F)cc3)c2n1C [Example 35, {[5,7-Bis-(4-fluoro-phenyl)-1-methyl-6-pyridin-4-yl-1H-pyrrolo[3,2-b]pyridin-2-ylmethyl]-N-ethyl-amino}-acetic acid methyl ester]
> 50%	Cn1ccc2nc(-c3ccc(F)cc3)c(-c3ccncc3)c(-c3ccc(F)cc3)c21 [Example 37, 5,7-Bis-(4-fluoro-phenyl)-1-methyl-6-pyridin-4-yl-1H-pyrrolo[3,2-b]pyridine]
> 50%	COC(=O)c1n[nH]c2c(-c3ccc(F)cc3)c(-c3ccncc3)c(-c3ccc(F)cc3)nc12 [Example 39, 5,7-Bis-(4-fluoro-phenyl)-6-pyridin-4-yl-1H-pyrazolo[4,3-b]pyridine-3-carboxylic acid methyl ester]
> 50%	Cc1noc2nc(-c3ccc(F)cc3)c(-c3ccnc(NCC4CC4)n3)cc12 [Example 40, Cyclopropylmethyl-{4-[6-(4-fluoro-phenyl)-3-methyl-isoxazolo[5,4-b]pyridin-5-yl]-pyrimidin-2-yl}-amine]
> 50%	COCCCNc1nccc(-c2cc3c(C)noc3nc2-c2ccc(F)cc2)n1 [Example 41, {4-[6-(4-Fluoro-phenyl)-3-methyl-isoxazolo[5,4-b]pyridin-5-yl]-pyrimidin-2-yl}-(3-methoxy-propyl)-amine]
> 50%	Cc1noc2nc(-c3ccc(F)cc3)c(-c3ccnc(N[C@@H](C)c4ccccc4)n3)cc12 [Example 42, (S)-{4-[6-(4-Fluoro-phenyl)-3-methyl-isoxazolo[5,4-b]pyridin-5-yl]-pyrimidin-2-yl}-(1-phenyl-ethyl)-amine]
